Experimental data as given in US12606529B2, “Sulfur and amide tropolone inhibitors of nucleotidyl transferases and uses therefor” (Saint Louis University, priority 2019, dated 2026).
Converted amounts (≈) assume the structure as drawn. Like-named read-outs stand apart in the source and are kept apart here.

Tests used:
HSV-1 = assay: Anti-HSV-1 replication assay (Vero cells, plaque titer); format: cell-based, herpes simplex virus 1; conditions: for log reduction at 1 µM / log reduction at 5 µM / log reduction at 0.33 µM: Human alphaherpesvirus 1, Vero; for log reduction at 1 µM: compound at 1 μM, read-out: HSV-1 suppression 1 μM; for log reduction at 5 µM: compound at 5 μM, read-out: HSV-1 suppression 5 μM; for log reduction at 0.33 µM: compound at 0.33 μM, read-out: HSV-1 suppression 0.33 μM
[1] = system: C. neoformans var. grubii, KN99; assay: C. neoformans growth inhibition assay (limiting dilution); format: cell-based, Cryptococcus neoformans
How it was run: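 Growth read as OD650 after 48 h unshaken culture at 35° C, resuspending cells before reading; inoculum OD650 0.001 in pH 7.0 MOPS-buffered YNB, 0.2% dextrose, 1% DMSO. MIC defined at 80% growth inhibition versus vehicle, values averaged from two or more independent triplicate runs.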

HepDES19 cells = conditions: Table 2 amides, MTT
Experimental: (§1) Cells used for toxicity and HBV studies. […] Cells were maintained in Dulbecco's modified Eagle's medium (DMEM)/F12 media supplemented with 10% fetal bovine serum (FBS) and 1% penicillin/streptomycin (P/S) with 1 μg/mL tetracycline. Synchronized expression of HBV pgRNA was induced by removing tetracycline from the culture medium.
(§2) Cytotoxicity Assays. Qualitative assessments of cytotoxicity were done visually by inspecting the cells in the primary screening assays. […] The next day the compounds were added at 0.78 to 100 μM in a final concentration of 1% (v/v) DMSO, and the cells were incubated for 24 hours under conditions identical to those employed for the viral replication inhibition assays. Mitochondrial toxicity was measured by incubating the cells with 0.25 mg/mL thiazolyl blue tetrazolium bromide (MTT, SigmaAldrich Chemical Co.), the cultures were incubated for 60 mM, metabolites were solubilized in acidic isopropanol, and absorbance was read at 570 nm. CC50 values were calculated by non-linear curve fitting using GraphPad Prism using the three-parameter variable-response log(inhibitor)-versus-response algorithm with the bottom value set to zero.

HBV replication = HBV replication inhibition in HepDES19 cells (strand-preferential qPCR); conditions: Hepatitis B virus, HBV replication, HepDES19 cells
Experimental: Cells used for toxicity and HBV studies.
HBV replication inhibition studies. HepDES19 cells were seeded in 96-well plates at 4×10^4 cells per well in the absence of tetracycline. Test compounds in a final DMSO concentration of 1% were applied to cells 48 hours after induction of HBV replication and cells were incubated with compounds for 72 hours. Cells were washed in 200 μL of phosphate buffered saline (PBS) and lysed in 150 μL of core lysis buffer (10 mM Tris pH 7.4, 1% Tween20, 150 mM NaCl). Cells were incubated at room temperate on an orbital shaker at 350 rpm for 40 minutes. Cell lysate was transferred to a 96 well polymerase chain reaction (PCR) plate and centrifuged at 3300×g for 5 minutes. The supernatant (50 μL) from the cell lysate was transferred to a 96-well PCR plate and mixed with 20 units of micrococcal nuclease and 100 μM CaCl2. The lysate was incubated for 1 hour at 37° C., and then the nuclease was inactivated at 70° C. for ten minutes. Qiagen protease (0.005 Anson units) was added to the lysate and the mixture was incubated overnight. Qiagen protease was then inactivated at 95° C. for ten minutes.
The crude lysate was used as the template for strand-preferential quantitative polymerase chain reaction (q-PCR) analysis. Quantitative PCR was performed with 40 cycles of 95° C. for 15 s and 60° C. for 1 minute employing the Kappa Probe Force universal PCR master mix.

human RNaseH1 = biological target: T1, human RNaseH1 (Homo sapiens, UniProt O60930); assay: Biochemical inhibition of human RNaseH1 activity
T1 sequence (O60930 1-286): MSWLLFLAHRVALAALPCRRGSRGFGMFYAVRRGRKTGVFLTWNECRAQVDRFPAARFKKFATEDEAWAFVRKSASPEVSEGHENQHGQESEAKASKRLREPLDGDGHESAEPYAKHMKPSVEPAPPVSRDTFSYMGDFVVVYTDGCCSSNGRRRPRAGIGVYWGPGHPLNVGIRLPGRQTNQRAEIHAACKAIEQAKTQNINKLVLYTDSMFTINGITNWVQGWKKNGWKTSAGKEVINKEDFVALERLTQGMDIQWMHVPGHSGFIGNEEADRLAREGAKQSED
How it was run: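 Human enzyme (0.3 μg) with 100 nM RNA:DNA molecular-beacon substrate, 50 mM HEPES pH 8.0, 100 mM NaCl, 2 mM TCEP, compounds 0 to 500 μM, 5% DMSO; started with 5 mM MgCl2, fluorescence read at 37° C. HBV enzyme (C-terminally truncated MBP-HRHgtCΔ5) run in FRET format, monitored 90 min at 37° C., initial rates calculated.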

HSV-2 = assay: Anti-HSV-2 replication assay (Vero cells, plaque titer); format: cell-based, herpes simplex virus 2; conditions: Table 3 sulfur compounds; compound at 5 μM
Experimental: HSV strains and cells used for HSV studies. […] HSV-1 and HSV-2 are de-identified clinical isolates from the Saint Louis University Hospital. Stocks were prepared after a single passage in cell culture and were titered by standard plaque assay (Knipe and Spang, 1982). Wild-type HSV-2 was laboratory strain 333. The TK-deficient mutant of HSV-2 strain 333, ΔTK−, contains a 180-bp KpnI-KpnI deletion in the UL23 open reading frame that abrogates TK activity (McDermott, et al, 1984). ΔTK− was the generous gift of Jim Smiley. Virus stocks were grown and titered on Vero cells (Morrison and Knipe, 1996).
Anti-HSV-1 and —HSV-2 replication assay. Compounds to be screened were diluted in PBS supplemented to contain 2% newborn calf serum and 1% glutamine and added in 100 μL volume to confluent cell monolayers in 24-well cluster plates Immediately thereafter HSV-1 and HSV-2, diluted in the supplemented PBS medium, were added to the wells in 50 μl volume such that the final concentration of compound was 50 μM and 5 μM and the multiplicity of infection was 0.1. The plates were incubated at 37° C. for 1 hour and then virus-containing inoculum was removed and the wells were washed once in PBS. Compounds, diluted to 50 μM and 5 μM in DMEM supplemented to contain 2% newborn calf serum and 1% each penicillin/streptomycin, were added at 0.5 mL/well. Plates were incubated at 37° C. an additional 23 hr, and then the plates were visually inspected through a phase contrast microscope for cytopathic effect, and for toxic effect. […] The entire contents of each well were collected by scraping. Samples were frozen at −80° C., and then subsequently thawed, sonicated, and infectious virus titer was determined by standard plaque assay on Vero cell monolayers. Because the compounds were dissolved at 10 mM in 100% DMSO, equivalent dilutions of DMSO were added to additional wells as a control for effects of the diluent. Each experiment was repeated once.

in vitro = conditions: human, HepDES19 cells
Experimental: as §1, §2

[2] = biological target: HBV RNaseH (MBP-HRHgtCΔ5) (Hepatitis B virus genotype C subtype ayr, UniProt Q69028); assay: Biochemical inhibition of HBV RNaseH (FRET-based RNaseH assay); parameters: a genotype C isolate which lacks the C-terminal 35 amino acids of the HBV RNaseH domain that are predicted to be unstructured; made in house; conditions: HBV RNaseH IC50 (μM), Table 2 amides
Experimental: Biochemical inhibition of human RNaseH1 activity. Quantitative inhibition of the human RNaseH1 in the biochemical assays was assessed using a molecular beacon assay as described previously (Edwards et al., 2017). Recombinant human RNaseH 1 (0.3 μg) was incubated with 100 nM RNA:DNA substrate, 50 mM HEPES pH 8.0, 100 mM NaCl, 2 mM Tris(2-carboxyethyl)phosphine hydrochloride (TCEP), 0.05% Tween20, 5 units of RNaseOut, test compounds (0 to 500 μM), and 5% DMSO in a 100 μL reaction volume. The substrate was formed by annealing a complementary RNA oligonucleotide to a hairpin DNA oligonucleotide to hold the hairpin DNA oligonucleotide in an open conformation. The DNA oligonucleotide has a 5′ fluorescein reporter and a 3′ black hole quencher. […] Reactions were initiated with 5 mM MgCl2 and fluorescence was read using a Synergy HTS multi-mode plate reader at 37° C. […] Quantitative inhibition of the human RNaseH1 in biochemical assays was assessed using a FRET-based RNaseH assay under conditions previously reported for an RNaseH molecular beacon assay (Edwards et al., 2017). […] Cleavage of the RNA strand released the fluorescein from quenching, increasing fluorescence. Reactions were monitored for 90 min at 37° C. in a plate reader and initial reaction rates were calculated. […]

E. coli = assay: Bacterial growth inhibition (E. coli); format: cell-based; conditions: Escherichia coli
[3] = Table 2 amides, 48 h, 35° C., tested 0.19 to 50 μM, read-out: C. neoformans MIC80
[4] = HepDES19, read-out: HBV EC50, Table 3 sulfur compounds
[5] = Table 3 sulfur compounds, read-out: Hu RNaseH IC50
[6] = Table 3 sulfur compounds, values separated by / are repeats
[7] = Cryptococcus neoformans, 48 h, Table 3 sulfur compounds, 48 h, 35° C., read-out: C. neoformans MIC80
[8] = CC50, Table 3 sulfur compounds, MTT
[9] = Table 2 amides, read-out: HuRH1 IC50
[10] = Table 2 amides, values separated by / are repeats
[11] = Cryptococcus neoformans, 48 h, Table 2 amides, 48 h, 35° C., tested 0.19 to 50 μM, read-out: C. neoformans MIC80

HBV RNaseH (MBP-HRHgtCΔ5), sequence (Q69028 691-808, stated change not applied): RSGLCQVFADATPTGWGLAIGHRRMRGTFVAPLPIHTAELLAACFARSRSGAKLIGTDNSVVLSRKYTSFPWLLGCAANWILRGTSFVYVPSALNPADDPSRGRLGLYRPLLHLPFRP

SMILES	EC50 (HBV replication; [4]) [µM]	IC50 (human RNaseH1; [5]) [µM]	log reduction at 1 µM (HSV-1; [6])	log reduction at 5 µM (HSV-1; [6])	HSV-2 suppression 5 μM (HSV-2) [log10]	MIC80 [1, 7] [µM]	CC50 at 24 h (in vitro; [8]) [µM]	IC50 (human RNaseH1; [9]) [µM]	log reduction at 5 µM (HSV-1; [10])	MIC80 [1, 11] [µM]	CC50 at 24 h (in vitro; CC50 (μM), Table 2 amides, MTT) [µM]	further results
Cc1cc(O)c(=O)c(O)cc1C(=O)N1CCNCC1 [compound 404]	–	–	–	–	–	–	–	–	–	–	–	Reduction of HSV-1 titers / suppression of HSV-1 replication at 5 μM (HSV-1; 5 μM, plaque forming units (PFU)/ml): undetectable; MIC80 [1, 3]: 9 µM (≈ 2.38 µg/mL); CC50 (HepDES19 cells): 4.5 ± 1.4 µM
O=c1c(O)cccc(Sc2cccc3ccccc23)c1O [compound 839]	50	201	-0.1	3.21	4.2	17 (≈ 5.04 µg/mL)	35.1	–	–	–	–	–
Cc1cc(O)c(=O)c(O)cc1C(=O)NCc1ccc(OC(F)(F)F)cc1 [compound 804]	–	–	–	–	–	–	–	802 ± 397	1.75	6.8 (≈ 2.51 µg/mL)	30.1 ± 18	log reduction at 0.33 µM (HSV-1; Table 2 amides): 0.191; log reduction at 1 µM (HSV-1; [10]): 0.292; IC50 [2]: 285 ± 226 µM
Cc1ccc(Sc2cccc(O)c(=O)c2O)cc1 [compound 838]	17	100	0.05	5.33	5.09	1 (≈ 0.26 µg/mL)	18.6	–	–	–	–	–
Cc1cc(O)c(=O)c(O)cc1C(=O)N1CCNCC1 [compound 391]	–	–	–	–	–	–	–	–	0.29	–	–	EC50 (HBV replication; HepDES19, 72 h, Table 2 amides, plus-polarity DNA, 72 h): 0.46 ± 0.2 µM; MIC80 [1, 3]: 40 µM (≈ 10.6 µg/mL); CC50 (HepDES19 cells): 37.5 ± 4.8 µM; CC50 at 24 h (in vitro; CC50): > 20 µM
Cc1cc(O)c(=O)c(O)cc1C(=O)Nc1ccc(OCc2ccccc2)cc1 [compound 837]	–	–	–	–	–	–	–	625 ± 451	4.09	4.5 (≈ 1.7 µg/mL)	8.7 ± 3.4	IC50 [2]: 118 ± 88.7 µM
Cc1cc(O)c(=O)c(O)cc1C(=O)NCCc1ccccc1 [compound 710]	–	–	–	–	–	–	–	32.3 ± 3.2	1.69	2.5 (≈ 0.748 µg/mL)	4.5 ± 3	log reduction at 1 µM (HSV-1; [10]): 0.15; MIC80 (E. coli): 30 µM (≈ 8.98 µg/mL)
CCCCCCSc1cccc(O)c(=O)c1O [compound 840]	50	72.8	1.52	3.69	5.59	1 (≈ 0.254 µg/mL)	21.5	–	–	–	–	log reduction at 0.33 µM (HSV-1; [6]): 0.271; MIC80 ([1]; Cryptococcus neoformans, read-out: MIC80 against C. neoformans): ≤ 1 µM
